Experimental data from patent US6809065B2, “Herbicide containing substituted pyrazole derivative as active ingredient” (SDS Biotech K.K., priority 2001, dated 2004).

Key:
Setaria viridis [1] = assay: Upland field foliage treatment (Test Example 1); type: in vivo; details: foliage treatment 14th day after sowing, wettable powder, 1 kg active ingredient per hectare, evaluated 21st day after application
Excerpt: (§1) In the above evaluation criteria, the term “herbicidal effect” means evaluation to the objective weeds, and a higher index of the evaluation criteria means higher herbicidal effect on the objective weeds. On the other hand, a lower index of the evaluation criteria for the crops means higher safety to the crops. A plastic pot of 130 cm^2 was filled with upland soil. Then, seeds of weeds, namely, Setaria viridis, Digitaria adscendens, Chenopodium album and Stellaria media, and seeds of crops, namely, soybean (Glycine max) and wheat (Triticum aestivum), were sowed and covered with soil of about 1 cm thick. On the 14th day after the sowing, a wettable powder composition was prepared in accordance with Formulation Example 1, diluted with water in such an amount that the amount of the active ingredient became 1 kg per hectare, and then uniformly applied to the plant leaf surfaces. On the 21st day after the application, observation and evaluation were carried out according to the aforesaid criteria.

Chenopodium album [2] = assay: Upland field foliage treatment (Test Example 1); type: in vivo; details: foliage treatment 14th day after sowing, wettable powder, 1 kg active ingredient per hectare, evaluated 21st day after application
Excerpt: as §1

Digitaria adscendens [3] = assay: Upland field foliage treatment (Test Example 1); type: in vivo; details: foliage treatment 14th day after sowing, wettable powder, 1 kg active ingredient per hectare, evaluated 21st day after application
Excerpt: as §1

Stellaria media [4] = assay: Upland field foliage treatment (Test Example 1); type: in vivo; details: foliage treatment 14th day after sowing, wettable powder, 1 kg active ingredient per hectare, evaluated 21st day after application
Excerpt: as §1

Echinochloa spp. = assay: Paddy field treatment (Test Example 3); type: in vivo, Echinochloa crusgalli; details: paddy pot, submerged 4 cm, dropped on water surface 10th day after transplantation, 1 kg active ingredient per hectare, evaluated 21st day
Description: (§2) In the above evaluation criteria, the term “herbicidal effect” means evaluation to the objective weeds, and a higher index of the evaluation criteria means higher herbicidal effect on the objective weeds. On the other hand, a lower index of the evaluation criteria for the crops means higher safety to the crops. A plastic pot of 130 cm^2 was filled with paddy soil, and soil puddling was carried out to adjust the submerged depth to 4 cm. Then, seeds of Echinochloa crusgalli, Monochoria vaginalis, Ammannia multiflora and Scirpus juncoides were sowed, and rice (Oryza […], variety: Koshihikari) of two-leaf period was transplanted by 2 rice plants of 1 stub per pot at a depth of 3 cm. On the 10th day after the transplantation, a wettable powder composition was prepared in accordance with Formulation Example 1, diluted with water in such an amount that the amount of the active ingredient became 1 kg per hectare, and then dropped to diffuse on the water surface. On the 21st day after the dropping, observation and evaluation were carried out according to the aforesaid criteria.

Ammannia multiflora = assay: Paddy field treatment (Test Example 3); type: in vivo; details: paddy pot, submerged 4 cm, dropped on water surface 10th day after transplantation, 1 kg active ingredient per hectare, evaluated 21st day
Description: as §2

Scirpus juncoides = assay: Paddy field treatment (Test Example 3); type: in vivo; details: paddy pot, submerged 4 cm, dropped on water surface 10th day after transplantation, 1 kg active ingredient per hectare, evaluated 21st day
Description: as §2

Monochoria vaginalis = assay: Paddy field treatment (Test Example 3); type: in vivo; details: paddy pot, submerged 4 cm, dropped on water surface 10th day after transplantation, 1 kg active ingredient per hectare, evaluated 21st day
Description: as §2

[5] = system: wheat (Triticum aestivum); assay: Upland field foliage treatment (Test Example 1), crop; type: in vivo; details: foliage treatment 14th day after sowing, 1 kg active ingredient per hectare, evaluated 21st day, lower index = higher safety
Excerpt: as §1

soybean (Glycine max) [6] = assay: as above; type: in vivo; details: foliage treatment 14th day after sowing, 1 kg active ingredient per hectare, evaluated 21st day, lower index = higher safety
Excerpt: as §1

[7] = system: wheat (Triticum aestivum); assay: Upland soil treatment (Test Example 2), crop; type: in vivo; details: soil surface treatment next day after sowing, 1 kg active ingredient per hectare, evaluated 21st day, lower index = higher safety
Excerpt: (§3) In the above evaluation criteria, the term “herbicidal effect” means evaluation to the objective weeds, and a higher index of the evaluation criteria means higher herbicidal effect on the objective weeds. On the other hand, a lower index of the evaluation criteria for the crops means higher safety to the crops. A plastic pot of 130 cm^2 was filled with upland soil. Then, seeds of weeds, namely, Setaria viridis, Digitaria adscendens, Chenopodium album and Stellaria media, and seeds of crops, namely, soybean (Glycine max) and wheat (Triticum aestivum), were sowed and covered with soil of about 1 cm thick. On the next day after the sowing, a wettable powder composition was prepared in accordance with Formulation Example 1, diluted with water in such an amount that the amount of the active ingredient became 1 kg per hectare, and then uniformly applied to the soil surface. On the 21st day after the application, observation and evaluation were carried out according to the aforesaid criteria.

soybean (Glycine max) [8] = assay: Upland soil treatment (Test Example 2), crop; type: in vivo; details: soil surface treatment next day after sowing, 1 kg active ingredient per hectare, evaluated 21st day, lower index = higher safety
Excerpt: as §3

Setaria viridis [9] = assay: Upland soil treatment (Test Example 2); type: in vivo; details: soil surface treatment next day after sowing, wettable powder, 1 kg active ingredient per hectare, evaluated 21st day after application
Excerpt: as §3

Chenopodium album [10] = assay: Upland soil treatment (Test Example 2); type: in vivo; details: soil surface treatment next day after sowing, wettable powder, 1 kg active ingredient per hectare, evaluated 21st day after application
Excerpt: as §3

Digitaria adscendens [11] = assay: Upland soil treatment (Test Example 2); type: in vivo; details: soil surface treatment next day after sowing, wettable powder, 1 kg active ingredient per hectare, evaluated 21st day after application
Excerpt: as §3

Stellaria media [12] = assay: Upland soil treatment (Test Example 2); type: in vivo; details: soil surface treatment next day after sowing, wettable powder, 1 kg active ingredient per hectare, evaluated 21st day after application
Excerpt: as §3

[13] = system: rice (Oryza sative, variety: Koshihikari); assay: Paddy field treatment (Test Example 3), crop; type: in vivo, Oryza sativa; details: transplanted rice two-leaf period, water surface treatment 10th day after transplantation, 1 kg active ingredient per hectare, evaluated 21st day, lower index = higher safety
Description: as §2

Row | SMILES | Herbicidal activity Setaria viridis (Setaria viridis [1]) | Herbicidal activity Chenopodium album (Chenopodium album [2]) | Herbicidal activity Digitaria adscendens (Digitaria adscendens [3]) | Herbicidal activity Stellaria media (Stellaria media [4]) | Herbicidal activity Echinochloa spp. (Echinochloa spp.) | Herbicidal activity Ammannia multiflora (Ammannia multiflora) | Herbicidal activity Scirpus juncoides (Scirpus juncoides) | Herbicidal activity Monochoria vaginalis (Monochoria vaginalis) | Herbicidal activity Triticum aestivum [5] | Herbicidal activity Glycine max (soybean (Glycine max) [6]) | Herbicidal activity Triticum aestivum [7] | Herbicidal activity Glycine max (soybean (Glycine max) [8]) | Herbicidal activity Setaria viridis (Setaria viridis [9]) | Herbicidal activity Chenopodium album (Chenopodium album [10]) | Herbicidal activity Digitaria adscendens (Digitaria adscendens [11]) | Herbicidal activity Stellaria media (Stellaria media [12]) | Herbicidal activity Oryza sativa [13]
1 | COC=C(Cn1nc(-c2ccccc2Cl)cc1C)C(=O)OC [Compound 4] | 4 (herbicidal effect of not less than 70% by weight and less than 90% by weight) | 5 (herbicidal effect of not less than 90% by weight) | 4 (herbicidal effect of not less than 70% by weight and less than 90% by weight) | 4 (herbicidal effect of not less than 70% by weight and less than 90% by weight) | 4 (herbicidal effect of not less than 70% by weight and less than 90% by weight) | 3 (herbicidal effect of not less than 50% by weight and less than 70% by weight) | 4 (herbicidal effect of not less than 70% by weight and less than 90% by weight) | 5 (herbicidal effect of not less than 90% by weight) | 0 (herbicidal effect of not less than 0% by weight and less than 10% by weight) | 0 (herbicidal effect of not less than 0% by weight and less than 10% by weight) | 0 (herbicidal effect of not less than 0% by weight and less than 10% by weight) | 0 (herbicidal effect of not less than 0% by weight and less than 10% by weight) | 4 (herbicidal effect of not less than 70% by weight and less than 90% by weight) | 4 (herbicidal effect of not less than 70% by weight and less than 90% by weight) | 4 (herbicidal effect of not less than 70% by weight and less than 90% by weight) | 4 (herbicidal effect of not less than 70% by weight and less than 90% by weight) | 0 (herbicidal effect of not less than 0% by weight and less than 10% by weight)
2 | COC=C(Cn1nc(-c2cccc(Cl)c2Cl)cc1C)C(=O)OC [Compound 6] | 4 (herbicidal effect of not less than 70% by weight and less than 90% by weight) | 4 (herbicidal effect of not less than 70% by weight and less than 90% by weight) | 4 (herbicidal effect of not less than 70% by weight and less than 90% by weight) | 4 (herbicidal effect of not less than 70% by weight and less than 90% by weight) | 4 (herbicidal effect of not less than 70% by weight and less than 90% by weight) | 3 (herbicidal effect of not less than 50% by weight and less than 70% by weight) | 3 (herbicidal effect of not less than 50% by weight and less than 70% by weight) | 3 (herbicidal effect of not less than 50% by weight and less than 70% by weight) | 0 (herbicidal effect of not less than 0% by weight and less than 10% by weight) | 0 (herbicidal effect of not less than 0% by weight and less than 10% by weight) | 0 (herbicidal effect of not less than 0% by weight and less than 10% by weight) | 0 (herbicidal effect of not less than 0% by weight and less than 10% by weight) | 4 (herbicidal effect of not less than 70% by weight and less than 90% by weight) | 4 (herbicidal effect of not less than 70% by weight and less than 90% by weight) | 4 (herbicidal effect of not less than 70% by weight and less than 90% by weight) | 4 (herbicidal effect of not less than 70% by weight and less than 90% by weight) | 0 (herbicidal effect of not less than 0% by weight and less than 10% by weight)
3 | COC=C(Cn1nc(-c2ccc(Cl)cc2Cl)cc1C)C(=O)OC [Compound 7] | 4 (herbicidal effect of not less than 70% by weight and less than 90% by weight) | 5 (herbicidal effect of not less than 90% by weight) | 4 (herbicidal effect of not less than 70% by weight and less than 90% by weight) | 5 (herbicidal effect of not less than 90% by weight) | 4 (herbicidal effect of not less than 70% by weight and less than 90% by weight) | 4 (herbicidal effect of not less than 70% by weight and less than 90% by weight) | 3 (herbicidal effect of not less than 50% by weight and less than 70% by weight) | 4 (herbicidal effect of not less than 70% by weight and less than 90% by weight) | 0 (herbicidal effect of not less than 0% by weight and less than 10% by weight) | 0 (herbicidal effect of not less than 0% by weight and less than 10% by weight) | 0 (herbicidal effect of not less than 0% by weight and less than 10% by weight) | 0 (herbicidal effect of not less than 0% by weight and less than 10% by weight) | 5 (herbicidal effect of not less than 90% by weight) | 4 (herbicidal effect of not less than 70% by weight and less than 90% by weight) | 4 (herbicidal effect of not less than 70% by weight and less than 90% by weight) | 4 (herbicidal effect of not less than 70% by weight and less than 90% by weight) | 0 (herbicidal effect of not less than 0% by weight and less than 10% by weight)
4 | COC=C(Cn1nc(-c2cc(Cl)ccc2Cl)cc1C)C(=O)OC [Compound 8] | 4 (herbicidal effect of not less than 70% by weight and less than 90% by weight) | 5 (herbicidal effect of not less than 90% by weight) | 5 (herbicidal effect of not less than 90% by weight) | 5 (herbicidal effect of not less than 90% by weight) | 4 (herbicidal effect of not less than 70% by weight and less than 90% by weight) | 5 (herbicidal effect of not less than 90% by weight) | 4 (herbicidal effect of not less than 70% by weight and less than 90% by weight) | 5 (herbicidal effect of not less than 90% by weight) | 0 (herbicidal effect of not less than 0% by weight and less than 10% by weight) | 0 (herbicidal effect of not less than 0% by weight and less than 10% by weight) | 0 (herbicidal effect of not less than 0% by weight and less than 10% by weight) | 0 (herbicidal effect of not less than 0% by weight and less than 10% by weight) | 4 (herbicidal effect of not less than 70% by weight and less than 90% by weight) | 4 (herbicidal effect of not less than 70% by weight and less than 90% by weight) | 4 (herbicidal effect of not less than 70% by weight and less than 90% by weight) | 4 (herbicidal effect of not less than 70% by weight and less than 90% by weight) | 0 (herbicidal effect of not less than 0% by weight and less than 10% by weight)
